Experimental data published in article PMC5684143, “New melanocortin-like peptide of E. coli can suppress inflammation via the mammalian melanocortin-1 receptor (MC1R): possible endocrine-like function for microbes of the gut” (NPJ Biofilms and Microbiomes, 2017).

Tests used:
RAW 264.7 cells [1] = assay: Peptidoglycan (PGN)-induced TNF release by RAW 264.7 cells; assay type: cell-based, murine; conditions: picomolar range of peptide; waning inhibition at nanomolar concentrations
Protocol: (§1) Murine macrophage-like RAW 264.7 cells were obtained from American Type Culture Collection, and were grown in Dulbecco’s Modified Eagle’s Medium (DMEM, Life Technologies) containing 10% (vol/vol) heat-inactivated fetal bovine serum (FBS, Hyclone Lab. Inc.), penicillin 100 U/ml, and streptomycin 100 μg/ml (BioWhittaker Inc.). Cells were suspended in medium and incubated in 24-well or 48-well tissue-culture plates overnight in a humidified incubator (37 °C, 5% CO2). Growth medium was removed and replaced by Opti-MEM I serum-free medium (Life Technologies) overnight. In the experiments, cell monolayers were stimulated with HMGB1 or LPS, in the absence or presence of MECO-1 or alpha-MSH; cell-free supernatants were assayed for TNF by ELISA or HMGB1 by western blotting.
(§2) Concentrations of TNF and IL-6 were each determined using a commercially available enzyme-linked immunosorbent assay (ELISA) kit (R&D System Inc.) as previously described.[34] The levels of TNF or IL-6 were calculated with reference to standard curves.
Fig. 2 Cytokine-induced TNF release inhibited by MECO-1. a Lipopolysaccharide (LPS), derived from the cell wall of Gram-negative bacteria, is a TLR4 and TLR2 agonist. RAW 264.7 cells were treated with MECO-1 and LPS simultaneously and incubated overnight. Supernatants were tested for TNF with ELISA. b Poly I:C, synthetic double stranded RNA, is recognized by TLR3. […]

RAW 264.7 cells [2] = assay: HMGB1-induced TNF release by RAW 264.7 macrophage-like cells; assay type: cell-based, murine
Protocol: Fig. 1 MECO-1 attenuates HMGB1-induced TNF release by macrophages in culture. Murine macrophage-like RAW 264.7 cells were incubated for up to 24 h with purified recombinant HMGB1 (0.1 mg/ml) in the absence or presence of MECO-1 (Panel a), or alpha-MSH (Panel b), at 10^−10 and 10^−12 M. The levels of TNF in the culture medium were determined by ELISA and expressed as mean ± SEM of two independent experiments (in duplicate). *p < 0.05, **p < 0.01 vs. control (“HMGB1 alone”). […] In panels c and d, cells were incubated with HMGB1 for 6 h with or without MECO-1 or alpha-MSH (10^−16–10^−6 M). Data represent mean ± SEM of three independent experiments performed in duplicate. With 10^−14 M peptide, results were significant at *p < 0.05, and at 10^−12 M or more were typically **p < 0.01. In our experiments, at concentrations of MECO-1, alpha-MSH, and ACTH of around 1 nM and higher, dose response curves often reverse direction, i.e., turn upward. The reversal is more clearly seen in Fig. 2. The mechanism of the reversal is not known. (Desensitization, receptor inactivation, receptor internalization, and dissociation of dimeric receptors are all plausible candidates.) As a result, the shape of the lower part of the curve and the actual inflection point may vary from experiment to experiment. This feature may be missed when results of several experiments are combined
as §1, §2
Fig. 3 Antibody to MC1R blocks suppressant effect of MECO-1 and alpha-MSH. Murine macrophage-like RAW 264.7 cells were pretreated with specific antibodies (“anti-MC1R Ab”) against melanocortin-1 receptor (MC1R) for 10 min prior to addition of HMGB1 in the absence or presence of MECO-1 or alpha-MSH at 10^−12 M. At 6 h, the TNF content of the cell-free medium was determined by ELISA, and expressed as mean ± SEM of two independent experiments performed in duplicate. ACTH at the same concentration gave results that were indistinguishable from those of alpha-MSH and MECO-1 (data not shown)

Balb/C mice = assay: Lethal LPS endotoxin sepsis in mice, survival; assay type: in vivo; conditions: two experiments pooled; peptide i.p. twice daily for 3 days; saline 0 of 19; alpha-MSH 5 of 20, MECO-1 15 of 30
Excerpt: Kaplan–Meier analysis was used to determine statistical significance of the differences in survival of mice. p ≦ 0.05 was considered significant. Values in the figures were expressed as mean(±)S.E.M. of two or three independent experiments, where each experimental point was derived from duplicates or triplicates. Student’s two-tailed t-test was used to compare the means between groups. p-value of 0.05 or less was considered statistically significant. The design (including sample size) of experiments in Figs. 2–7, and Table 1 followed closely the design of previous experiments by us and others. The results of prior experiments in our laboratory (both in vitro experiments and animal experiments) were used to decide sample size for each of the experiments shown.[37]–[41]
Fig. 6 MECO-1 rescues mice from lethal sepsis. a Endotoxin. Balb/C mice (males) were injected once intraperitoneally with LPS at a dose estimated to be an LD75. Immediately thereafter, the first doses of MECO-1 at 0.5 mg/kg (low dose), MECO-1 at 5 mg/kg (high dose), alpha-MSH at 5 mg/kg (high dose) or saline alone were administered intraperitoneally. Peptide or saline were given twice daily for 3 days for a total of six doses. Ten mice were in each group. Survival was monitored daily for 2 weeks. […] Animals were monitored for survival for 14 days. […]

alpha-melanocyte-stimulating hormone [alpha-MSH]
inhibition of PGN-induced TNF release (RAW 264.7 cells [1]): Up to 75% | peptide concentration at which significant effects on HMGB1-induced TNF release were noted (RAW 264.7 cells [2]; 6 h incubation, dose range 10^−16–10^−6 M, three independent experiments in duplicate, p < 0.05): 10^−14 M | inhibition of HMGB-1-induced TNF release (RAW 264.7 cells [2]; Fig. 2d dose response, RAW 264.7 cells): up to 80% | TNF accumulation with HMGB1 on co-incubation with peptide (RAW 264.7 cells [2]; peptide 10^−12–10^−8 M): substantially reduced | HMGB-1-stimulated TNF-alpha release (RAW 264.7 cells [2]; peptide at 1 pM and 100 pM, 4 to 16 h after HMGB-1, HMGB1 0.1 mg/ml, ELISA, two independent experiments in duplicate): blunted substantially | mice rescued from lethal dose of LPS endotoxin (Balb/C mice): 25%
